Experimental data taken from patent US20210206817A1, “Metabolically Stable Apelin Analogs in the Treatment of Disease Mediated by the Apelin Receptor” (priority 2014, published 2021).
Read-outs that look alike come from different tables or passages of the source. Where a SMILES comes first, the peptide text is derived from it.

Experiments:
[1] = biological target: T1, rat apelin receptor-EGFP (Rattus norvegicus, UniProt Q9JHG3); assay: [125I]pE13F radioligand binding on CHO membrane preparations
T1 construct: expressed in transfected cells
T1 sequence (Q9JHG3 1-377): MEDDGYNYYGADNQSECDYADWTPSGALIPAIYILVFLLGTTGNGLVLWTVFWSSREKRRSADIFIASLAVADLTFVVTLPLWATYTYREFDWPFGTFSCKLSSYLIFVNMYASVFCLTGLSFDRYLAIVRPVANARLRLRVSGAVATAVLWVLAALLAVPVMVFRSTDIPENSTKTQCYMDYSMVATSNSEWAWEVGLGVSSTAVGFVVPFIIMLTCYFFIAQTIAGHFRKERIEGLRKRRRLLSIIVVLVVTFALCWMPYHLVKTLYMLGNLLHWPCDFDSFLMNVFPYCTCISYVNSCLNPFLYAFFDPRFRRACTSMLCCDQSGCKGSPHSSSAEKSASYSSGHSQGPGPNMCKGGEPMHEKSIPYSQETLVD
Procedure: Crude membrane preparation from CHO stably expressing the wild-type rat apelin receptor-EGFP, were prepared as previously described (39). […] The reaction was stopped by adding ice-cold binding buffer and filtered through glass microfiber filters (Whatman GF/C filters). Radioactivity was counted in Wizard 1470 Wallac gamma counter (Perkin Elmer, Turku, Finland).

[2] = biological target: T1, rat apelin receptor-EGFP; assay: Inhibition of forskolin-induced cAMP production (HTRF); type: cell-based
Procedure: cAMP was quantified using the cAMP dynamic 2 assay kit (Cisbio Bioassays, Codolet, France) based on homogeneous time-resolved fluorescence (HTRF) technology. The stimulation was done in the stimulation buffer (HBSS, 5 mM Hepes, 0.1% BSA stabilizer, 1 mM IBMX, pH 7.4). Briefly, 2,000/well CHO cells stably expressing the rat apelin receptor-EGFP were added into 384-well plate and stimulated with 10^−6 M forskolin (FSK) and increasing concentrations (10^−14 to 10^−4 M) of apelins or its analogs for 30 min at room temperature. Cells were then lyzed, and cAMP levels were determined following manufacturer instructions.

[3] = Table 3, read-out: Ki nM ± SEM (15.11.2013)
[4] = Table 3, read-out: IC50 cAMP inhibition
[5] = competition with [125I]pE13F, CHO membranes, read-out: Ki for the apelin receptor (affinity)

| Compound | Ki [1, 3] [nM] | IC50 [2, 4] [nM] | Ki [1, 5] [nM] | affinity improved as compared to K17F by a factor [1] | IC50 ([1]; Table 1) [nM] | IC50 ([2]; Table 1, read-out: cAMP production IC50) [nM] |
| --- | --- | --- | --- | --- | --- | --- |
| CCCCCCCCCCCCCCCC(=O)NCCCC[C@H](N)C(=O)N[C@@H](CCCCN)C(=O)N[C@@H](Cc1ccccc1)C(=O)N[C@@H](CCCNC(=N)N)C(=O)N[C@@H](CCCNC(=N)N)C(=O)N[C@@H](CCC(N)=O)C(=O)N[C@@H](CCCNC(=N)N)C(=O)N1CCC[C@H]1C(=O)N[C@@H](CCCNC(=N)N)C(=O)N[C@@H](CC(C)C)C(=O)N[C@@H](CO)C(=O)N[C@@H](Cc1c[nH]cn1)C(=O)N[C@@H](CCCCN)C(=O)NCC(=O)N1CCC[C@H]1C(=O)N[C@@H](CCSC)C(=O)N1CCC[C@H]1C(=O)N[C@@H](Cc1ccccc1)C(=O)O [JFM V-0210/2] | 1.33 ± 0.15 | 1.4 ± 0.5 |  |  |  |  |
| CSCC[C@H](NC(=O)[C@@H]1CCCN1C(=O)CNC(=O)[C@H](CCCCN)NC(=O)[C@H](Cc1c[nH]cn1)NC(=O)[C@H](CO)NC(=O)[C@H](CC(C)C)NC(=O)[C@H](CCCNC(=N)N)NC(=O)[C@@H]1CCCN1C(=O)[C@H](CCCNC(=N)N)NC(=O)[C@H](CCC(N)=O)NC(=O)[C@H](CCCNC(=N)N)NC(=O)[C@H](CCCNC(=N)N)NC(=O)[C@H](Cc1ccccc1)NC(=O)[C@H](CCCCN)NC(=O)[C@@H](N)CCCCNC(=O)CCC(F)(F)C(F)(F)C(F)(F)C(F)(F)C(F)(F)C(F)(F)C(F)(F)C(F)(F)F)C(=O)N1CCC[C@H]1C(=O)N[C@@H](Cc1ccccc1)C(=O)O [JFM V-0210/1] | 0.18 ± 0.023 | 3.8 ± 1 |  |  |  |  |
| CSCC[C@H](NC(=O)[C@@H]1CCCN1C(=O)CNC(=O)[C@H](CCCCN)NC(=O)[C@H](Cc1c[nH]cn1)NC(=O)[C@H](CO)NC(=O)[C@H](CC(C)C)NC(=O)[C@H](CCCNC(=N)N)NC(=O)[C@@H]1CCCN1C(=O)[C@H](CCCNC(=N)N)NC(=O)[C@H](CCC(N)=O)NC(=O)[C@H](CCCNC(=N)N)NC(=O)[C@H](CCCNC(=N)N)NC(=O)[C@H](Cc1ccccc1)NC(=O)[C@@H](N)CCCCNC(=O)CCC(F)(F)C(F)(F)C(F)(F)C(F)(F)C(F)(F)C(F)(F)C(F)(F)C(F)(F)F)C(=O)N1CCC[C@H]1C(=O)N[C@@H](Cc1ccccc1)C(=O)O [JFM V-0220B] | 0.16 ± 0.01 | 1 ± 0.4 | 0.2 |  |  |  |
| CCCC[C@H](NC(=O)[C@@H]1CCCN1C(=O)[C@@H](C)NC(=O)[C@H](CCCCN)NC(=O)C(C)(C)NC(=O)[C@H](CO)NC(=O)[C@@H](CC(C)C)NC(=O)[C@H](CCCNC(=N)N)NC(=O)[C@@H]1CCCN1C(=O)[C@H](CCCNC(=N)N)NC(=O)[C@@H](CCC(N)=O)NC(=O)[C@H](CCCNC(=N)N)NC(=O)[C@H](CCCNC(=N)N)NC(=O)[C@H](Cc1ccccc1)NC(=O)[C@H](CCCCN)NC(C)=O)C(=O)N1CCC[C@H]1C(=O)N[C@@H](Cc1ccc(Br)cc1)C(=O)O [P95, N-Acetyl-Lys-Phe-Arg-Arg-D-Gln-Arg-Pro-Arg-D-Leu-Ser-Aib-Lys-D-Ala-Pro-Nle-Pro-(4-Br)Phe] (HELM PEPTIDE1{[ac].K.F.R.R.[dQ].R.P.R.[dL].S.[Aib].K.[dA].P.[Nle].P.[O=C(O)[C@H](Cc1ccc(Br)cc1)N[*:1]]}$$$$V2.0; C-terminus assumed) |  |  | 0.03 | 10 | 0.03 ± 0.02 | 0.34 ± 0.36 |
| CCCCCCCCCCCCCCCC(=O)NCCCC[C@H](N)C(=O)N[C@@H](Cc1ccccc1)C(=O)N[C@@H](CCCNC(=N)N)C(=O)N[C@@H](CCCNC(=N)N)C(=O)N[C@@H](CCC(N)=O)C(=O)N[C@@H](CCCNC(=N)N)C(=O)N1CCC[C@H]1C(=O)N[C@@H](CCCNC(=N)N)C(=O)N[C@@H](CC(C)C)C(=O)N[C@@H](CO)C(=O)N[C@@H](Cc1c[nH]cn1)C(=O)N[C@@H](CCCCN)C(=O)NCC(=O)N1CCC[C@H]1C(=O)N[C@@H](CCSC)C(=O)N1CCC[C@H]1C(=O)N[C@@H](Cc1ccccc1)C(=O)O [JFM V-0220A] | 1.43 ± 0.74 | 2 ± 0.75 |  |  |  |  |
